For six compounds, solubility, IC50 and EC50 results are on record in ChEMBL document CHEMBL4420076, “Amylin and calcitonin receptor agonist” (2017).

The nature of data set [1]: Solubility in 100 mM glycylglycine buffer at pH 3.0 incubated for 18 hrs by UPLC analysis. Type of data set: physicochemical.
Data set [2] in a line: Solubility in 100 mM bistrispropane buffer at pH 6.0 incubated for 18 hrs by UPLC analysis. It counts as physicochemical.
A short description of data set [3]: Solubility in 100 mM bistrispropane buffer at pH 6.5 incubated for 18 hrs by UPLC analysis. Type of data set: physicochemical.
Data set [4] in a line: Solubility in 100 mM bistrispropane buffer at pH 7.0 incubated for 18 hrs by UPLC analysis. It counts as physicochemical.
Data set [5] can be described thus: Solubility in 100 mM bistrispropane buffer at pH 7.5 incubated for 18 hrs by UPLC analysis. Type of data set: physicochemical.
The nature of data set [6]: Solubility in 100 mM bistrispropane buffer at pH 8.0 incubated for 18 hrs by UPLC analysis. Type of data set: physicochemical.
The target of data set [7] is T1, Amylin receptor AMY3; CALCR/RAMP3 (Homo sapiens, UniProt O60896+P30988).
T1 sequence (P30988 whole entry): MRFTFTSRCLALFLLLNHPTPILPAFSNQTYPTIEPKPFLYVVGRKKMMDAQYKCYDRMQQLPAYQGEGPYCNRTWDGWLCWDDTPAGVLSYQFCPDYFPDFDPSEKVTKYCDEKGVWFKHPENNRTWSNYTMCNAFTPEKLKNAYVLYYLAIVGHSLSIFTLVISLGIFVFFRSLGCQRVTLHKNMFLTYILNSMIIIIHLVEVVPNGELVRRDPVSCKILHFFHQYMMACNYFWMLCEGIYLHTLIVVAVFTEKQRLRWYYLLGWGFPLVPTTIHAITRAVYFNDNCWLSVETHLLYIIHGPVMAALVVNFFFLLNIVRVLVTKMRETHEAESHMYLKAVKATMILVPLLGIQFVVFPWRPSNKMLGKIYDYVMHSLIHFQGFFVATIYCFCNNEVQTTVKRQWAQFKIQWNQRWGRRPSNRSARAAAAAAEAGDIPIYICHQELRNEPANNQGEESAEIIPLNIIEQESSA
T1 sequence (O60896 whole entry): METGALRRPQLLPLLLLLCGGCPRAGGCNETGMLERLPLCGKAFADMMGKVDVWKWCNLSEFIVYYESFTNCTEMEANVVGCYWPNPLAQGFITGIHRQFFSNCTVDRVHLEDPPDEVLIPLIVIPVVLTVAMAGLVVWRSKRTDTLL
Kind of data set: Displacement of [125I]-labeled rat amylin from human amylin receptor expressed in BHK tkts13 whole cells co-expressing RAMP3 incubated for 60 mins by scintillation proximity assay. It counts as cell-based.

In data set [8] the target is T1, Amylin receptor AMY3; CALCR/RAMP3. The data set can be described thus: Agonist activity at human amylin receptor expressed in BHK570 cells co-expressing RAMP3 assessed as increase in intracellular cAMP concentration incubated for 3 hrs in absence of albumin by CRE luciferase reporter gene assay. It counts as functional, cell-based.
Data set [9] has as its target T2, Calcitonin receptor (Homo sapiens, UniProt P30988).
T2 sequence (P30988 whole entry): T1 sequence (P30988 whole entry)
The data set can be described thus: Agonist activity at human calcitonin receptor expressed in BHK570 cells assessed as increase in intracellular cAMP concentration incubated for 3 hrs in absence of albumin by CRE luciferase reporter gene assay. Type of data set: functional, cell-based. Background: Reporter assays use an easily measured gene product as a stand-in for the process of interest.

In data set [10] the target is T2, Calcitonin receptor. Kind of data set: Agonist activity at human calcitonin receptor expressed in BHK570 cells assessed as increase in intracellular cAMP concentration incubated for 3 hrs in presence of 10% FBS by CRE luciferase reporter gene assay. It counts as functional, cell-based.
Data set [11] can be described thus: Solubility in 100 mM glycylglycine buffer at pH 4.0 incubated for 18 hrs by UPLC analysis. Type of data set: physicochemical.
A short description of data set [12]: Solubility in 100 mM glycylglycine buffer at pH 5.0 incubated for 18 hrs by UPLC analysis. It counts as physicochemical.

Numbered stars: 1 amine (or outer) side, 2 acyl side, 3 side chain; on linkers, the order of the positions; unused ones are H or OH. Peptide text beside a SMILES is read from it. * marks the point of attachment. C20 diacid = O=C(O)CCCCCCCCCCCCCCCCCCC(=O)*; C18 diacid = O=C(O)CCCCCCCCCCCCCCCCC(=O)*; γGlu = O=C(O)[C@H](CCC(=O)[*:2])N[*:1] Where only a bound is given, the exact number is not on record here.

For `CC(C)C[C@H](NC(=O)[C@H](C)NC(=O)[C@H](C)NC(=O)[C@@H](NC(=O)[C@H](CO)NC(=O)[C@H](CC(C)C)NC(=O)[C@H](CCC(=O)O)NC(=O)[C@H](CO)NC(=O)[C@H](C)NC(=O)CC[C@H](NC(=O)CCCCCCCCCCCCCCCCCCC(=O)O)C(=O)O)[C@@H](C)O)C(=O)NCC(=O)N[C@@H](CCCNC(=N)N)C(=O)N[C@@H](CC(C)C)C(=O)N[C@@H](CO)C(=O)N[C@@H](C)C(=O)N[C@@H](CCC(=O)O)C(=O)N[C@@H](CC(C)C)C(=O)N[C@@H](Cc1cnc[nH]1)C(=O)N[C@@H](CCC(=O)O)C(=O)N[C@@H](CC(C)C)C(=O)N[C@@H](C)C(=O)N[C@H](C(=O)N[C@@H](Cc1ccc(O)cc1)C(=O)N1CCC[C@H]1C(=O)N[C@@H](CCCNC(=N)N)C(=O)N[C@H](C(=O)N[C@@H](CCC(=O)O)C(=O)N[C@H](C(=O)NCC(=O)N[C@@H](CO)C(=O)NCC(=O)N[C@@H](CO)C(=O)N[C@@H](Cc1ccc(O)cc1)C(=O)O)[C@@H](C)O)[C@@H](C)O)[C@@H](C)O` ({C20 diacid-γGlu}-ASELSTAALGRLSAELHELATYPRTETGSGSY-OH), the solubility at 18 h in [1], in [2], in data set [3], in data set [4], in data set [5] and in [6] was no less than 200 µM each time. Further, in data set [7], the IC50 was 92 nM.
Take `CC(C)C[C@H](NC(=O)[C@H](C)NC(=O)[C@H](C)NC(=O)[C@@H](NC(=O)[C@H](CO)NC(=O)[C@H](CC(C)C)NC(=O)[C@H](CCC(=O)O)NC(=O)[C@H](CO)NC(=O)[C@H](C)NC(=O)[C@@H](N)CCC(=O)O)[C@@H](C)O)C(=O)NCC(=O)N[C@@H](CCCNC(=N)N)C(=O)N[C@@H](CC(C)C)C(=O)N[C@@H](CO)C(=O)N[C@@H](C)C(=O)N[C@@H](CCC(=O)O)C(=O)N[C@@H](CC(C)C)C(=O)N[C@@H](Cc1cnc[nH]1)C(=O)N[C@@H](CCC(=O)O)C(=O)N[C@@H](CC(C)C)C(=O)N[C@@H](C)C(=O)N[C@H](C(=O)N[C@@H](CC(C)C)C(=O)N1CCC[C@H]1C(=O)N[C@@H](CCCNC(=N)N)C(=O)N[C@H](C(=O)N[C@@H](CCC(=O)O)C(=O)N[C@H](C(=O)NCC(=O)N1CCC[C@H]1C(=O)N[C@@H](CCC(=O)O)C(=O)N[C@@H](CO)C(=O)N1CCC[C@H]1C(=O)O)[C@@H](C)O)[C@@H](C)O)[C@@H](C)O` (H-EASELSTAALGRLSAELHELATLPRTETGPESP-OH): in data set [7], the IC50 was 294 nM.
As to `CC(C)C[C@H](NC(=O)[C@H](C)NC(=O)[C@H](C)NC(=O)[C@@H](NC(=O)[C@H](CO)NC(=O)[C@H](CC(C)C)NC(=O)[C@H](CCC(=O)O)NC(=O)[C@H](CO)NC(=O)[C@H](C)NC(=O)CC[C@H](NC(=O)CCCCCCCCCCCCCCCCCCC(=O)O)C(=O)O)[C@@H](C)O)C(=O)NCC(=O)N[C@@H](CCCNC(=N)N)C(=O)N[C@@H](CC(C)C)C(=O)N[C@@H](CO)C(=O)N[C@@H](C)C(=O)N[C@@H](CCC(=O)O)C(=O)N[C@@H](CC(C)C)C(=O)N[C@@H](Cc1cnc[nH]1)C(=O)N[C@@H](CCC(=O)O)C(=O)N[C@@H](CC(C)C)C(=O)N[C@@H](CO)C(=O)N[C@H](C(=O)N[C@@H](Cc1ccc(O)cc1)C(=O)N1CCC[C@H]1C(=O)N[C@@H](CCCNC(=N)N)C(=O)N[C@H](C(=O)N[C@@H](CCC(=O)O)C(=O)N[C@H](C(=O)NCC(=O)N[C@@H](CO)C(=O)NCC(=O)N[C@@H](CO)C(=O)N1CCC[C@H]1C(N)=O)[C@@H](C)O)[C@@H](C)O)[C@@H](C)O` ({C20 diacid-γGlu}-ASELSTAALGRLSAELHELSTYPRTETGSGSP-NH2), the figures for the EC50 (in [8]; at Calcitonin receptor [9]; on Calcitonin receptor [10]) were 0.033 nM, 0.027 nM and 0.03 nM, respectively. Further, the solubility at 18 h in data set [1], in data set [11], in [2], in data set [3], in data set [4] and in [5] was no less than 200 µM each time. In [6], this compound returned a solubility at 18 h of no less than 200 µM.
As to `CC(C)C[C@H](NC(=O)[C@H](C)NC(=O)[C@@H](NC(=O)[C@H](CO)NC(=O)[C@H](CC(C)C)NC(=O)[C@H](CCC(=O)O)NC(=O)[C@H](CO)NC(=O)[C@H](C)NC(=O)[C@H](CCC(=O)O)NC(=O)CCCCCCCCCCCCCCCCC(=O)O)[C@@H](C)O)C(=O)N[C@@H](CC(C)C)C(=O)NCC(=O)N[C@@H](CCCNC(=N)N)C(=O)N[C@@H](CC(C)C)C(=O)N[C@@H](CO)C(=O)N[C@@H](C)C(=O)N[C@@H](CCC(=O)O)C(=O)N[C@@H](CC(C)C)C(=O)N[C@@H](Cc1cnc[nH]1)C(=O)N[C@@H](CCC(=O)O)C(=O)N[C@@H](CC(C)C)C(=O)N[C@@H](C)C(=O)N[C@H](C(=O)N[C@@H](CC(C)C)C(=O)N1CCC[C@H]1C(=O)N[C@@H](CCCNC(=N)N)C(=O)N[C@H](C(=O)N[C@@H](CCC(=O)O)C(=O)N[C@H](C(=O)NCC(=O)N1CCC[C@H]1C(=O)N[C@@H](CCC(=O)O)C(=O)N[C@@H](CO)C(=O)N1CCC[C@H]1C(N)=O)[C@@H](C)O)[C@@H](C)O)[C@@H](C)O` ({C18 diacid}-EASELSTALLGRLSAELHELATLPRTETGPESP-NH2), the EC50 in [8] was 0.028 nM; on Calcitonin receptor [9] it was 0.013 nM. Besides, the solubility at 18 h in [1], in data set [11], in data set [2], in data set [12], in data set [3] and in [4] was no less than 200 µM in each case. Moreover, the solubility at 18 h in data set [5] and in [6] was no less than 200 µM in each case.
With `CC(C)C[C@H](NC(=O)[C@H](CO)NC(=O)[C@H](C)NC(=O)[C@@H](NC(=O)[C@H](CO)NC(=O)[C@H](CC(C)C)NC(=O)[C@H](CCC(=O)O)NC(=O)[C@H](CO)NC(=O)[C@H](C)NC(=O)CC[C@H](NC(=O)CCCCCCCCCCCCCCCCCCC(=O)O)C(=O)O)[C@@H](C)O)C(=O)NCC(=O)N[C@@H](CCCNC(=N)N)C(=O)N[C@@H](CC(C)C)C(=O)N[C@@H](CO)C(=O)N[C@@H](C)C(=O)N[C@@H](CCC(=O)O)C(=O)N[C@@H](CC(C)C)C(=O)N[C@@H](Cc1cnc[nH]1)C(=O)N[C@@H](CCC(=O)O)C(=O)N[C@@H](CC(C)C)C(=O)N[C@@H](C)C(=O)N[C@H](C(=O)N[C@@H](Cc1ccc(O)cc1)C(=O)N1CCC[C@H]1C(=O)N[C@@H](CCCNC(=N)N)C(=O)N[C@H](C(=O)N[C@@H](CCC(=O)O)C(=O)N[C@H](C(=O)NCC(=O)N[C@@H](CO)C(=O)NCC(=O)N[C@@H](CO)C(=O)N[C@@H](Cc1ccc(O)cc1)C(N)=O)[C@@H](C)O)[C@@H](C)O)[C@@H](C)O` ({C20 diacid-γGlu}-ASELSTASLGRLSAELHELATYPRTETGSGSY-NH2), the EC50 was 0.037 nM in data set [8] and 0.042 nM on Calcitonin receptor [10]. Besides, the solubility at 18 h in data set [1], in data set [2], in data set [3], in [4], in data set [5] and in data set [6] was no less than 200 µM throughout.
Consider `CC(C)C[C@H](NC(=O)[C@H](CCC(=O)O)NC(=O)[C@H](Cc1cnc[nH]1)NC(=O)[C@H](CC(C)C)NC(=O)[C@H](CCC(=O)O)NC(=O)[C@H](C)NC(=O)[C@H](CO)NC(=O)[C@H](CC(C)C)NC(=O)[C@H](CCCCN)NC(=O)CNC(=O)[C@H](CC(C)C)NC(=O)[C@@H](NC(=O)[C@H](C)NC(=O)[C@@H](NC(=O)[C@H](CO)NC(=O)[C@H](CC(C)C)NC(=O)[C@H](CCC(=O)O)NC(=O)[C@H](CO)NC(=O)[C@H](C)NC(=O)[C@H](CCC(=O)O)NC(=O)CCCCCCCCCCCCCCCCC(=O)O)[C@@H](C)O)C(C)C)C(=O)N[C@@H](C)C(=O)N[C@H](C(=O)N[C@@H](CC(C)C)C(=O)N1CCC[C@H]1C(=O)N[C@@H](CCCCN)C(=O)N[C@H](C(=O)N[C@@H](CCC(=O)O)C(=O)N[C@H](C(=O)NCC(=O)N1CCC[C@H]1C(=O)N[C@@H](CCC(=O)O)C(=O)N[C@@H](CO)C(=O)N1CCC[C@H]1C(N)=O)[C@@H](C)O)[C@@H](C)O)[C@@H](C)O` ({C18 diacid}-EASELSTAVLGKLSAELHELATLPKTETGPESP-NH2), for which the 50% effective concentration (EC50) in data set [8] was 0.016 nM; on Calcitonin receptor [9] it was 0.008 nM. The solubility at 18 h in [1], in [11], in [2], in [12], in [3] and in data set [4] was no less than 200 µM in each case. Further, the solubility at 18 h in data set [5] and in data set [6] was no less than 200 µM in each case.

As usually defined, the solubility is how much of the substance goes into solution per volume. Broadly, the IC50 is the concentration at which inhibition is half-maximal. As a reminder, the EC50 is the concentration at which the effect is half-maximal.
